Values quoted from earlier work in publication PMC3473115 (Accounts of chemical research, 2012).

Tested on: HIV-1 gp41
Conditions: read-out: CCF IC50; cell-cell fusion assay

In the case of H2N-Trp-[Trp]-Leu-OH [compound 5], the IC50 is given as 5 µM.
